pIC50: −log10 of the molar value. Like-named read-outs stand apart in the source and are kept apart here.
How the values were obtained:
[1] = Respiratory Quotient Measurement Assay; assay type: in vivo, Sprague-Dawley rats; settings: rats, FIG. 9 and FIG. 10
Description: Compounds of the present invention were also assayed in a Respiratory Quotient Measurement Assay, as described by Harwood et al. “Isozyme-nonselective N-Substituted Bipiperidylcarboxamide Acetyl-CoA Carboxylase Inhibitors Reduce Tissue Malonyl-CoA Concentrations, Inhibit Fatty Acid Synthesis, and Increase Fatty Acid Oxidation in Cultured Cells and in Experimental Animals” Journal of Biological Chemistry (2008) 278, 37099-37111. An exemplary procedure for the assay, which measures the ratio of carbon dioxide production to oxygen consumption in rats, follows.
Male Sprague-Dawley rats (350-400 g) housed under standard laboratory conditions, either fed chow, fasted, or fasted and refed a diet high in sucrose for 2 days prior to experimentation were removed from their home cages, weighed, and placed into sealed chambers (43″43″10 cm) of the calorimeter (one rat per chamber). The chambers were placed in activity monitors. The calorimeter was calibrated before each use, air flow rate was adjusted to 1.6 liters/min, and the system settling and sampling times were set to 60 and 15 s, respectively. Base-line oxygen consumption, CO2 production, and ambulatory activity were measured every 10 min for up to 3 h before treatment. […]

[2] = target: ACC1 (Homo sapiens, UniProt Q13085); experiment: In vitro ACC1 inhibition assay (ADP-Glo); assay type: biochemical
How it was run: (§1)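 Enzyme (human ACC1 or ACC2) and compound, serially diluted 1:3 over 11 points from a 600 uM DMSO stock, were preincubated 15 min before substrate addition.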

[3] = tested on: C. krusei ATCC 6258; experiment: Anti-Fungal Activity Assay (broth microtiter MIC); assay type: cell-based; settings: 3 replicates, test compounds read at 48 h
Description: (§2) Compounds of the present invention were evaluated in an Anti-Fungal Activity Assay. An exemplary procedure for the assay, which measures the susceptibility of various Candida species to anti-fungal compounds, follows. Compounds to be tested (including fluconazole and amphotericin B) were dissolved in DMSO to obtain a solution having a concentration of 1 mg/mL. […] All species were grown from frozen stock by directly plating on to freshly prepared Sabouraud Dextrose agar (BD, Difco) and incubated overnight in ambient air at 35° C. for 24 h. A direct suspension was prepared in RPMI 1640+MOPS (Lonza, Biowhittaker) by taking individual colonies from the overnight cultures using sterile swabs soaked in sterile saline. The concentration of the suspension was determined using pre-determined standard curves. […] The original CLSI guidelines focused on reading Candida MICs after 48 h of incubation. As reading after only 24 h offers a clear advantage of patient care, QC limits are being established for all drugs at 24 h. That being said there are no known interpretive breakpoints for amphotericin B at 24 h and the current fluconazole interpretive breakpoints are based on a 48 h reading. The MIC breakpoints for the Pharmaron test compounds were recorded at 48 h, and for the soraphen the 24 h time-point was added. All MIC determinations were achieved by visually comparing the growth found in the antibiotic challenged wells to that of the growth control.

[4] = tested on: C. parapsilosis ATCC 22019; experiment: Anti-Fungal Activity Assay (broth microtiter MIC); assay type: cell-based; settings: 3 replicates, test compounds read at 48 h
Description: as §2

[5] = tested on: C. albicans ATCC 90028; experiment: Anti-Fungal Activity Assay (broth microtiter MIC); assay type: cell-based; settings: 3 replicates, test compounds read at 48 h
Description: as §2

[6] = target: ACC2 (Homo sapiens, UniProt O00763); experiment: In vitro ACC2 inhibition assay (ADP-Glo); assay type: biochemical
How it was run: as §1

ACC2, sequence (O00763 whole entry, species assumed): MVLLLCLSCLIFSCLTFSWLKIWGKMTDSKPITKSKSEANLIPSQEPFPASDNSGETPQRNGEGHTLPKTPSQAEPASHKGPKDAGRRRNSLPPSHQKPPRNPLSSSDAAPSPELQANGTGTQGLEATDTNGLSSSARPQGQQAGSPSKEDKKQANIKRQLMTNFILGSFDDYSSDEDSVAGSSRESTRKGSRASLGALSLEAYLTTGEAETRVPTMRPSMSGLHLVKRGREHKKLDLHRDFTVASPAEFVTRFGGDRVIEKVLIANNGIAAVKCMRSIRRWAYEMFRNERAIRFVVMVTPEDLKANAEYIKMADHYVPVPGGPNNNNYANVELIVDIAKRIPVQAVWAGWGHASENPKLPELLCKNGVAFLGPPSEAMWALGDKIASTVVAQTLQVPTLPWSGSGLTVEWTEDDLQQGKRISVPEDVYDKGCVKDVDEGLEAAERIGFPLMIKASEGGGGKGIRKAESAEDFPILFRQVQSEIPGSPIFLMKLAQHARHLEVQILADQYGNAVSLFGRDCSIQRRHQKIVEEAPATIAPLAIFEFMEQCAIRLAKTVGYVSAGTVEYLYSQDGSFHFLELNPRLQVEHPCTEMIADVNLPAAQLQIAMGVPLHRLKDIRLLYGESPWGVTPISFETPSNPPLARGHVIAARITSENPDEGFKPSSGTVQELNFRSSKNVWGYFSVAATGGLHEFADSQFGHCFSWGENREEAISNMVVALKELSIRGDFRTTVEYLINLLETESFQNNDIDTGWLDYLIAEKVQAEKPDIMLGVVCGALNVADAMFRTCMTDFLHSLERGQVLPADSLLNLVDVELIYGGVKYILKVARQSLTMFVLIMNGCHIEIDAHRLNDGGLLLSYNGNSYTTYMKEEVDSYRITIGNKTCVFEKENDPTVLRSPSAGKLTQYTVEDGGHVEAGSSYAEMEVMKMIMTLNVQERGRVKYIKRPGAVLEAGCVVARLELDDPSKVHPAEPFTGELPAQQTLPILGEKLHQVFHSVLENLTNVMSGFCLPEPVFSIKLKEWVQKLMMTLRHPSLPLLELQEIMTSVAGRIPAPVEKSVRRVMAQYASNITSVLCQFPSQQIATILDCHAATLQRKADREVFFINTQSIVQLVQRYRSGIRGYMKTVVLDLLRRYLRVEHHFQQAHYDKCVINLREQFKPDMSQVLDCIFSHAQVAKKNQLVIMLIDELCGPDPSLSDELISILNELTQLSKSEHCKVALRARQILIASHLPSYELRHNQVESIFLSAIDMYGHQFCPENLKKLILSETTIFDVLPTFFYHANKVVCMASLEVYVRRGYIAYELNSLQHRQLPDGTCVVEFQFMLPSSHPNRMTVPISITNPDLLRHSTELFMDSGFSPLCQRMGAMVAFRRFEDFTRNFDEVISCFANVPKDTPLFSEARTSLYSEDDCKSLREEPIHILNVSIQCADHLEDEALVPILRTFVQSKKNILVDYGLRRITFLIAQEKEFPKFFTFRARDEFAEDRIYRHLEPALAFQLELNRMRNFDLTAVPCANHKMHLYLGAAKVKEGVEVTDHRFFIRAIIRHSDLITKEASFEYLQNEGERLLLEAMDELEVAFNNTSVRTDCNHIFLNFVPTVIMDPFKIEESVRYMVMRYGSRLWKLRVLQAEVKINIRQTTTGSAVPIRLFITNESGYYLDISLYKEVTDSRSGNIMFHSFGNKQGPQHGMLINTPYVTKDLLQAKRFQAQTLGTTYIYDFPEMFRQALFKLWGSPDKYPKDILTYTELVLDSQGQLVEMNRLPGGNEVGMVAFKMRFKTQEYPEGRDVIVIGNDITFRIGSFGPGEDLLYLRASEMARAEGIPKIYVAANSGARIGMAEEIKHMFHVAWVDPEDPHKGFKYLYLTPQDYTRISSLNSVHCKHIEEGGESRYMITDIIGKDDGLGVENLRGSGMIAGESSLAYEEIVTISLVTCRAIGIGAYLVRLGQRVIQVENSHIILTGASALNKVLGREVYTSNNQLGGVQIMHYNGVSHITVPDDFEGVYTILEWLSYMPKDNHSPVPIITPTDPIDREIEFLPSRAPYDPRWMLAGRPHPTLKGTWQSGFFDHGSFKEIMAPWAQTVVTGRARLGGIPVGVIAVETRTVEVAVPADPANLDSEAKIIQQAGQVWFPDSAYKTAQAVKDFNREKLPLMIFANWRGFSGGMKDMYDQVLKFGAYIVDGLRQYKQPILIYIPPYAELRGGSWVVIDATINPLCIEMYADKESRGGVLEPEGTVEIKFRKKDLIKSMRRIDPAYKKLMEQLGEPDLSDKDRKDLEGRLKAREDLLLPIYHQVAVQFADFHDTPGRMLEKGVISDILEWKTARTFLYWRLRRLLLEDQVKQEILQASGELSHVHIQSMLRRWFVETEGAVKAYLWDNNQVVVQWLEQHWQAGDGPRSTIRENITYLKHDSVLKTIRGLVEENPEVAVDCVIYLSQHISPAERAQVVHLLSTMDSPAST

COc1ccccc1[C@H](Cn1c(=O)n(C(C)(C)C(=O)O)c(=O)c2c(C)c(-c3ncco3)sc21)OC1CCOCC1 [I-181, 2-[1-[2-(2-methoxyphenyl)-2-(oxan-4-yloxy)ethyl]-5-methyl-6-(1,3-oxazol-2-yl)-2,4-dioxo-1H,2H,3H,4H-thieno[2,3-d]pyrimidin-3-yl]-2-methylpropanoic acid]
RQ relative to baseline [1]: 80-90 % of its baseline value | RQ, dose dependence ([1]; doses of 3, 10, 30 and 100 mg/kg): dose-dependent decreases in RQ | pIC50 [2]: > 7.00 | MIC [3]: >64 µg/mL | MIC ([3]; Pichia kudriavzevii, ATCC6258, 48 h, read-out: MIC): > 64 µg/mL | MIC [4]: >64 µg/mL | MIC ([4]; Lodderomyces parapsilosis, ATCC22019, 48 h, read-out: MIC): > 64 µg/mL | MIC [5]: >64 µg/mL | MIC ([5]; Candida albicans, ATCC90028, 48 h, read-out: MIC): > 64 µg/mL | pIC50 [6]: > 7.00

Reference: patent US9453026B2, “ACC inhibitors and uses thereof” (Gilead Apollo, Inc., priority 2011, dated 2016)
